US20250145606A1 (Arcus Biosciences, Inc., priority 2023, published 2025)
Read-outs that look alike come from different tables or passages of the source.

Columns and labels:
CSF1R = CSF1R (Homo sapiens (Human), UniProt P07333); assay: Inhibition of CSF1R kinase activity (HTRF KinEASE-TK); settings: biochemical, HTRF KinEASE-TK
Outline: (§1)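 Phosphorylation of biotinylated TK peptide read by HTRF (665/620 nm ratio) after 120 min at rt, following 1 h enzyme–compound preincubation. ATP (2× mix): 20 μM CSF1R, 16 μM c-Kit, 40 μM PDGFRβ, 1 μM PDGFRα; MgCl2 10 mM except c-Kit 5 mM. 22-point 1:2 titration; four-parameter IC50.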

FLT3 = FLT3 (Homo sapiens (Human), UniProt P36888); assay: Inhibition of FLT3 kinase activity (HTRF KinEASE-TK); assay type: biochemical; settings: biochemical, HTRF KinEASE-TK
Chain of FLT3 (P36888 27-993): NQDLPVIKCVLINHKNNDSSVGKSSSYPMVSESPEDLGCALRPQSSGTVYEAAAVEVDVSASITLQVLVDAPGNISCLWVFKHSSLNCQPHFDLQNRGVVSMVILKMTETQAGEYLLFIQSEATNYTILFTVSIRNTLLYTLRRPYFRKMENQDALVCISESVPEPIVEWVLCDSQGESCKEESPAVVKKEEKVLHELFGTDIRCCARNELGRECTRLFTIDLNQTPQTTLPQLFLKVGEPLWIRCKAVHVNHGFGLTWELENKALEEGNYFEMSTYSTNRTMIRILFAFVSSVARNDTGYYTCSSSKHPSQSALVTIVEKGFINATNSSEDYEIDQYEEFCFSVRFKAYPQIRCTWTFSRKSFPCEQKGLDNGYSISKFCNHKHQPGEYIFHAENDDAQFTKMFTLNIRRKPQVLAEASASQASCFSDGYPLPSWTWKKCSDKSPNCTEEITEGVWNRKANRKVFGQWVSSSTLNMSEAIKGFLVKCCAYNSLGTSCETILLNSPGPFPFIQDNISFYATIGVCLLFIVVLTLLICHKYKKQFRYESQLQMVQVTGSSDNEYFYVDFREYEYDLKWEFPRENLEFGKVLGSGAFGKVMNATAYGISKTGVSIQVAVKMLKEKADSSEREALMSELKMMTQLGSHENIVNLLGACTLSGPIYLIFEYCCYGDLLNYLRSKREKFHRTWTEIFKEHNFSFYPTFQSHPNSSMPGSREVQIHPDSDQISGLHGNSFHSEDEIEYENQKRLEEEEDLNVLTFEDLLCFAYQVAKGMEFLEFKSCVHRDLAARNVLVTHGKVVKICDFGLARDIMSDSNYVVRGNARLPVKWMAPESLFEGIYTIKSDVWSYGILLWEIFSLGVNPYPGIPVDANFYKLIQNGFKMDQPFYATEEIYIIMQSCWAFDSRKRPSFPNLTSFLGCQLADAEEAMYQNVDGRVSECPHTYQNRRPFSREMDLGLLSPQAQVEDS
Experimental: Inhibition of c-Kit, PDGFRα, PDGFRβ, CSFIR and FLT3 Kinase Activity
Compounds were evaluated to determine the potency with which they inhibit the kinase activity of the following panel of tyrosine kinases: c-Kit (SignalChem, Product #: K06-11BG), PDGFRα (SignalChem, Product #: P12-18G), PDGFRβ (SignalChem, Product #: P13-11G), CSFIR (SignalChem, Product #: C74-11G) and FLT3 (Invitrogen, Product #: PR4666C). Activity was determined as a function of phosphorylated biotinylated TK peptide generated by the transfer of phosphate from ATP as measured by the use of the HTRF KinEASE-TK assay kit (Cisbio, Product #: 62TKOPEJ). Levels of phosphorylated biotinylated TK peptide (Part 61TKOBLC of KinEASE assay kit) are quantified by its capture by phosphor-TK-Antibody-Cryptate (Part of KinEASE assay kit) and XL665-labeled Streptavidin (Part 610SAXLG of KinEASE assay kit) followed by measurement of Time-Resolved Fluorescence Resonance Energy Transfer (TR-FRET) signal. On the day of the assay, compounds were solubilized in DMSO and dispensed into a 384-well white Opti-plate (PerkinElmer, catalog #6007290) to generate a 22 point 1:2 titration. Enzyme solution was prepared for each of the tyrosine kinases in 50 mM HEPES, pH 7.4, 5 mM MgCl2 for c-Kit or 10 mM MgCl2 for FLT3, CSFIR, PDGFRa and PDGFRβ, 2 mM MnCl2, 0.01% Brij-35 and 0.01% BSA. Working enzyme concentrations were prepared for c-Kit at 2 nM (2×), PDGFRa and PDGFRß at 10 nM (2×), CSFIR at 2 nM (2×) and FLT3 at 0.4 nM (2×). Five microliters of enzyme dilution of each tyrosine kinase were added to their respective 384-well white Opti-plate pre-dispensed with compound and allowed to incubate for 1 h at rt. Utilizing the same enzyme buffer recipe, 2x substrate mixes were prepared for each enzyme as follows: For c-Kit, 1.6 μM (2×) TK substrate and 16 μM (2×) ATP (Promega, catalog #V915). For PDGFRα, 3.2 μM TK substrate and 1 μM ATP. For PDGFRβ, 3.2 μM TK substrate and 40 μM ATP. For CSFIR, […] TK substrate and 20 μM ATP. For FLT3, 3.2 μM TK substrate and 100 μM ATP. Reactions were initiated by addition of 5 μL of the respective 2x substrate mix to each well of the plates containing the respective tyrosine kinase enzymes and were allowed to proceed for 120 minutes at rt, except for FLT3, the reaction time is 45 min. Following the reaction, 10 μL of detection mix consisting of 0.2 μM (2×) of Streptavidin-XL665 and 2 μM (2×) of TK-Antibody-Cryptate prepared in detection buffer (Part 62SDBRDF of KinEASE assay kit) was added and then allowed to incubate for 60 min. The TR-FRET signal was quantified by measuring the ratio of emission at 665 nm to 620 nm after excitation at 320 nm by reading on a PerkinElmer Envision multimode reader. Compound potencies (IC50 values) were determined using a standard 4-parameter non-linear regression fit.

c-Kit = c-Kit (Homo sapiens (Human), UniProt P10721); assay: Inhibition of c-Kit kinase activity (HTRF KinEASE-TK); assay type: biochemical; settings: biochemical, HTRF KinEASE-TK
Chain of c-Kit (P10721 26-976): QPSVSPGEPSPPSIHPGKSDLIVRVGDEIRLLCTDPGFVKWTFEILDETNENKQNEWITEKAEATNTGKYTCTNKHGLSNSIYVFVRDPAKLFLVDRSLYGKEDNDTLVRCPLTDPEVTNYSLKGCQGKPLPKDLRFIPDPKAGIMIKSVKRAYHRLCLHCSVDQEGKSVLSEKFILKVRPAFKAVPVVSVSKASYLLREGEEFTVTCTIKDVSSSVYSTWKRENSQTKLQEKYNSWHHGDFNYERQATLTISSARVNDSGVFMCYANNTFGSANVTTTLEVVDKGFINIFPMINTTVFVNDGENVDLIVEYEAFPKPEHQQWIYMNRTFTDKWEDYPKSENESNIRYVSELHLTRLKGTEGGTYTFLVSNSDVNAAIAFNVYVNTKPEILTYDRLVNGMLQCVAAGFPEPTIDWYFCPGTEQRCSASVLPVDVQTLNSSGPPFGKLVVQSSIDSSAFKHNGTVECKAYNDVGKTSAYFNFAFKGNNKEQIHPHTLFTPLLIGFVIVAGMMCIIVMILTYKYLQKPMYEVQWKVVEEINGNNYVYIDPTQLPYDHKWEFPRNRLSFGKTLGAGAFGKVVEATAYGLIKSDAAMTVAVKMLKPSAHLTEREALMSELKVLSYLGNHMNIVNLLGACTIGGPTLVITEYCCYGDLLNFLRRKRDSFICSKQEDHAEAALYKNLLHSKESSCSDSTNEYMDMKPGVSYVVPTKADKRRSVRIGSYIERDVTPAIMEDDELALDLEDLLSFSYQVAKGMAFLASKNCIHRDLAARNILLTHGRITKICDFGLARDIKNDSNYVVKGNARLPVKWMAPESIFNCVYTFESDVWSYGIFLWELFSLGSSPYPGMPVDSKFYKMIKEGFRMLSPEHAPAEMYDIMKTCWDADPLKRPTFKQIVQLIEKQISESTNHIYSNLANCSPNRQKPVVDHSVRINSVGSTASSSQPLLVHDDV
Outline: as §1

PDGFRβ = PDGFRβ (Homo sapiens (Human), UniProt P09619); assay: Inhibition of PDGFRβ kinase activity (HTRF KinEASE-TK); settings: biochemical, HTRF KinEASE-TK
Chain of PDGFRβ (P09619 33-1106): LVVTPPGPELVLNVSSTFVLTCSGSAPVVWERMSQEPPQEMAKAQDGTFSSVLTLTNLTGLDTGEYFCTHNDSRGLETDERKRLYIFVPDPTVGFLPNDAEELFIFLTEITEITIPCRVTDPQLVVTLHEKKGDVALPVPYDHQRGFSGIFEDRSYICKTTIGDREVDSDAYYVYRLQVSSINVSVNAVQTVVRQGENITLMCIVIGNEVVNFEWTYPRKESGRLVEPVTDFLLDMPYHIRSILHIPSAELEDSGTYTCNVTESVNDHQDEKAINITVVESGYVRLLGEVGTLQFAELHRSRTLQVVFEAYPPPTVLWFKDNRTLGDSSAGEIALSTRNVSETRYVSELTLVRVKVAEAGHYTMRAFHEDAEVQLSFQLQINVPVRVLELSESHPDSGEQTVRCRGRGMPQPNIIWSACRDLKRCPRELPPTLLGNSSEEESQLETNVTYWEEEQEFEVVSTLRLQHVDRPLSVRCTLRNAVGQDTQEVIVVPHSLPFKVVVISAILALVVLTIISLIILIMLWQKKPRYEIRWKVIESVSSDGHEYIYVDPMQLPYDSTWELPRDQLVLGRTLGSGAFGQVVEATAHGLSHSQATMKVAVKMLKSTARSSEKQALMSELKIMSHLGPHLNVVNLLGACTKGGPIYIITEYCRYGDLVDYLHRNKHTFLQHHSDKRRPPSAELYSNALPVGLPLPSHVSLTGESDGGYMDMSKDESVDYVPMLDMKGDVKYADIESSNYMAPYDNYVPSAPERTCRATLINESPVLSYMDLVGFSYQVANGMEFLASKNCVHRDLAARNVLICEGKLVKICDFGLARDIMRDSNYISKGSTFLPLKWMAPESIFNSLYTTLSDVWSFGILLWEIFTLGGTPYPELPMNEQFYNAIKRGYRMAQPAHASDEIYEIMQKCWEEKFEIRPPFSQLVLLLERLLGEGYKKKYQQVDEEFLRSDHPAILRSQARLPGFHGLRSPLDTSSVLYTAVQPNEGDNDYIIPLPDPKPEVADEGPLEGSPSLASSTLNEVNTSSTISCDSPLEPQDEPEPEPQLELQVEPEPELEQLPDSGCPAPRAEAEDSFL
Outline: as §1

PDGFRα = PDGFRα (Homo sapiens (Human), UniProt P16234); assay: Inhibition of PDGFRα kinase activity (HTRF KinEASE-TK); settings: biochemical, HTRF KinEASE-TK
Chain of PDGFRα (P16234 24-1089): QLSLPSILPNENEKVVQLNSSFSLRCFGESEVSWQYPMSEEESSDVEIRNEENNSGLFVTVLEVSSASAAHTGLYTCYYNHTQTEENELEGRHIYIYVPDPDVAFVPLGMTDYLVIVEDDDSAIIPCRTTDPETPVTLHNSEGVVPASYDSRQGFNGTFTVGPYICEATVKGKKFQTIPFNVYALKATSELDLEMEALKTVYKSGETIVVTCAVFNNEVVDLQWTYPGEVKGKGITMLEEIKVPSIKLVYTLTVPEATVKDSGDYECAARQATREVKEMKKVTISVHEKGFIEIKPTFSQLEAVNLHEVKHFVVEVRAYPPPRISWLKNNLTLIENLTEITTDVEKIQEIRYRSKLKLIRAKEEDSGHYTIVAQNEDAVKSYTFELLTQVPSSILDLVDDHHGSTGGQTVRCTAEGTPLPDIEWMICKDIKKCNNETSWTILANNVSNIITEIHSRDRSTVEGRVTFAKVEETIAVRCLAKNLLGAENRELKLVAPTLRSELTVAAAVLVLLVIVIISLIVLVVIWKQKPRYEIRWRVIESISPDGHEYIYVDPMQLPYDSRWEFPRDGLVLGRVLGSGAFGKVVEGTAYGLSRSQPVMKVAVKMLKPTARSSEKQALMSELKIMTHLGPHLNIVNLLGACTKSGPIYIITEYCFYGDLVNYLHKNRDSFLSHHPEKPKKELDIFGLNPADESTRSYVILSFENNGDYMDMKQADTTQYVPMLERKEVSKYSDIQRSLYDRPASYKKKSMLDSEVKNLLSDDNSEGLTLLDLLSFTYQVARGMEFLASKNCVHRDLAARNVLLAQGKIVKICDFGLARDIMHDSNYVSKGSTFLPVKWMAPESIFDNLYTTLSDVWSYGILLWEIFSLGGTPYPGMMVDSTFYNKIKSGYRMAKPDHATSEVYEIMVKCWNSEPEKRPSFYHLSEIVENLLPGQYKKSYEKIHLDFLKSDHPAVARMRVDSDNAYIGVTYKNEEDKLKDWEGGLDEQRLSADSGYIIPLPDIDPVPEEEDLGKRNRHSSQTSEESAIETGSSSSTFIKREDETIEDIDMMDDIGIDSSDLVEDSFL
Outline: as §1

[1] = test system: Phospho-KIT (Y703) in M07e cells; assay: Phospho-KIT (Y703) cellular assay in M07e cells; assay type: cell-based; settings: M-07e, read-out: M07e Cell IC50
Outline: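 Serum-starved M07e cells preincubated 50 min at 37° C with 11-point half-log compound titration, then stimulated 10 min with SCF at 90.9 ng/mL final. Fixed, permeabilized cells stained for phospho-KIT Y703 and read by flow cytometry (live-gated geometric mean); IC50 by 4-parameter fit normalized to DMSO and positive control.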

Chain of CSF1R (P07333 20-972): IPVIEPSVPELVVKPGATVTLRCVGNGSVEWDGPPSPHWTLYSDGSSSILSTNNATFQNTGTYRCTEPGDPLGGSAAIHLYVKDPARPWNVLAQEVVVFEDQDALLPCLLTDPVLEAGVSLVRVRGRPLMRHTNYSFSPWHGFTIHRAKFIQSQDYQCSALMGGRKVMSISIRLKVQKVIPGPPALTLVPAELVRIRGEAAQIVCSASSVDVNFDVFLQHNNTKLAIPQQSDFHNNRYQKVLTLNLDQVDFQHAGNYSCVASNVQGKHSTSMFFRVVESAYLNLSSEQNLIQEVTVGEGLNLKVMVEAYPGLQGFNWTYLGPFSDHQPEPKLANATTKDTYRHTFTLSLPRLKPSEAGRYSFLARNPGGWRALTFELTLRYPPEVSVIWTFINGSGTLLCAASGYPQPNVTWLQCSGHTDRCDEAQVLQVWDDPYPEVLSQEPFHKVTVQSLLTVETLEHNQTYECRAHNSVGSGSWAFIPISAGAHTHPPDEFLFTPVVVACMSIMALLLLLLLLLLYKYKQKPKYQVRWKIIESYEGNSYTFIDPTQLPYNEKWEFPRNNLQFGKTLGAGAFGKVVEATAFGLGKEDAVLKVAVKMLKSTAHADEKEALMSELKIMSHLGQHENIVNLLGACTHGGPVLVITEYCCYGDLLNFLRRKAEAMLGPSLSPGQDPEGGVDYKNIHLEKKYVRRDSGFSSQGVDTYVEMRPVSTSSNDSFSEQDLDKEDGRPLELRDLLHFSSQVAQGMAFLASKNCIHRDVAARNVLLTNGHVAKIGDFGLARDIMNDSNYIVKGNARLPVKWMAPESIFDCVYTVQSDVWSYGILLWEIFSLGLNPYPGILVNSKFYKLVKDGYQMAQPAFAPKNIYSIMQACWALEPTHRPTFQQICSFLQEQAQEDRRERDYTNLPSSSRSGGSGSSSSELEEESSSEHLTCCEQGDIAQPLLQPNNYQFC

IC50 (CSF1R) [nM] | IC50 (FLT3) [nM] | IC50 (c-Kit) [nM] | IC50 (PDGFRβ) [nM] | IC50 (PDGFRα) [nM] | IC50 ([1]; Phospho-KIT (Y703), M07e cells) [nM] | Structure (SMILES) | IC50 [1] [nM]
> 1000 | > 1000 | < 100 | > 1000 | > 1000 | < 100 | Cc1ncc(C(=O)Nc2cc(C(=O)N[C@@H]3C[C@H]3c3ccccc3)c(F)cc2C)s1 [Example 31, N-[4-Fluoro-2-methyl-5-[[(1R,2S)-2-phenylcyclopropyl]carbamoyl]phenyl]-2-methyl-1,3-thiazole-5-carboxamide] | 
> 1000 | > 1000 | < 100 | > 1000 | > 1000 | < 100 | Cc1ncc(C(=O)Nc2cc(C(=O)Nc3ccc(OC(C)C)cn3)c(F)cc2C)s1 [Example 40, N-[4-fluoro-2-methyl-5-[(5-propan-2-yloxypyridin-2-yl)carbamoyl]phenyl]-2-methyl-1,3-thiazole-5-carboxamide] | 
> 1000 | > 1000 | < 100 | > 1000 | > 1000 | < 100 | Cc1ncc(C(=O)Nc2cc(C(=O)Nc3ccn(C(C)C)n3)c(F)cc2C)s1 [Example 63, N-[4-Fluoro-2-methyl-5-[(1-propan-2-ylpyrazol-3-yl)carbamoyl]phenyl]-2-methyl-1,3-thiazole-5-carboxamide] | 
> 1000 | > 1000 | < 100 | > 1000 | > 1000 | < 100 | Cc1ncc(C(=O)Nc2cc(C(=O)Nc3ccn(CC(C)C)n3)c(F)cc2C)s1 [Example 64, N-[4-fluoro-2-methyl-5-[[1-(2-methylpropyl)pyrazol-3-yl]carbamoyl]phenyl]-2-methyl-1,3-thiazole-5-carboxamide] | 
> 1000 | > 1000 | < 100 | 100 to 1000 | > 1000 | < 100 | Cc1ncc(C(=O)Nc2cc(C(=O)Nc3ccc(C4(C(F)(F)F)CC4)cn3)c(F)cc2C)s1 [Example 67] | 
> 1000 | > 1000 | < 100 | > 1000 | > 1000 | < 100 | CCc1ccc(NC(=O)c2cc(NC(=O)c3cnc(C)s3)c(C)cc2F)nc1 [Example 82, N-[5-[(5-ethylpyridin-2-yl)carbamoyl]-4-fluoro-2-methylphenyl]-2-methyl-1,3-thiazole-5-carboxamide] | 

Structure (SMILES) | IC50 (CSF1R) [nM] | IC50 (FLT3) [nM] | IC50 (c-Kit) [nM] | IC50 (PDGFRβ) [nM] | IC50 (PDGFRα) [nM] | IC50 ([1]; Phospho-KIT (Y703), M07e cells) [nM] | IC50 [1] [nM]
Cc1ncc(C(=O)Nc2cc(C(=O)Nc3ccc(CC(F)F)cn3)c(F)cc2C)s1 [Example 45, N-[5-[[5-(2,2-difluoroethyl)pyridin-2-yl]carbamoyl]-4-fluoro-2-methylphenyl]-2-methyl-1,3-thiazole-5-carboxamide] | > 1000 | > 1000 | < 100 | > 1000 | > 1000 |  | < 100
Cc1ncc(C(=O)Nc2cc(C(=O)Nc3ccc(CC(F)(F)F)cn3)c(C)cc2C)s1 [Example 75, N-(2,4-dimethyl-5-((5-(2,2,2-trifluoroethyl)pyridin-2-yl)carbamoyl)phenyl)-2-methylthiazole-5-carboxamide] | > 1000 | > 1000 | 100 to 1000 | > 1000 | > 1000 |  | 100 to 1000
Cc1ncc(C(=O)Nc2cc(C(=O)Nc3ccc(COC(F)F)cn3)c(F)cc2C)s1 [Example 78, N-[5-[[5-(difluoromethoxymethyl)pyridin-2-yl]carbamoyl]-4-fluoro-2-methylphenyl]-2-methyl-1,3-thiazole-5-carboxamide] | > 1000 | > 1000 | < 100 | > 1000 | > 1000 |  | < 100
Cc1ncc(C(=O)Nc2cc(C(=O)Nc3cncc(COC(F)F)c3)c(F)cc2C)s1 [Example 80, N-[5-[[5-(difluoromethoxymethyl)pyridin-3-yl]carbamoyl]-4-fluoro-2-methylphenyl]-2-methyl-1,3-thiazole-5-carboxamide] | > 1000 | > 1000 | < 100 | > 1000 | > 1000 |  | < 100
